Assays:
[1] = system: OC-1 cells; experiment: Cobalt chloride hypoxia assay; type: cell-based; settings: cells pre-treated with CoCl2 at 100 μM for 24 hours, microscopic examination
Description: This assay is used to determine whether an intervention can reverse hypoxic-induced cell death brought about by cobalt chloride. For this assay, cells are pre-treated with CoCl2 at 100 μM for 24 hours, followed by microscopic examination of cell morphology and viability.

[2] = system: Caspase 3/9 protein; experiment: Caspase assay; type: cell-based; settings: OC-1 cells under stressful, toxic conditions (FIG. 31)
Description: The caspase assay was carried as per manufacturer's instructions (abcam, NSW, Australia), as described below.
• Collagen coated cover slip • Fixing agent: 4% paraformaldehyde • Permeabilization agent 0.5% of Tween 20 or trition-X 100 diluted in PBS • Blocking: 1% BSA in PBST may also be used. • PBST: 0.1% Tween 20 in PBS • Primary abs (1:500 in PBS) • Secondary abs (1:1000 in PBS) • Hoechst (Nuclear stain)
First day: Fixation, permeabilize, blocking and add a primary antibody to the cells, as described below:
• Start by aspirating culture medium from each well followed by fixation of the cells with 4% Using 4% paraformaldehyde in PBS pH 7.4 for 10 min at room temperature. (Add one ml in each well). • Shake a plate for a few seconds.
0.5% of Tween 20 or trition-X 100 diluted in PBS. […]
• Make coverslips ready to be mounted onto microscope slides. • Take a clean slide and dispense one drop of antifade mounting medium by slowly from the pipette into the slide. • Carefully remove a coverslip from the well and allow excess wash to drip off and place the cells face down onto the slide. • Clear fingernail polish can be used to seal the coverslip and prevent it from drying out. • Visualized slide under microscope. […]

[3] = system: OC-1 cells; experiment: Seahorse bioenergetics experiment (oxygen consumption rate) after cisplatin; type: cell-based
Description: Mitochondrial function was analysed by measuring oxygen consumption rate (OCR) using real-time Seahorse Flux Analyser XF 96 (Seahorse Bioscience, USA) with our well-established method (Kovacevic, Bozica, et al. “Novel hydrogel comprising non-ionic copolymer with various concentrations of pharmacologically active bile acids for cellular injectable gel.” Colloids and Surfaces B: Biointerfaces (2022): 113014). Briefly, the first injection was with media without glucose, with subsequent ATP synthase inhibitor oligomycin and FCCP (carbonyl cyanide-p-trifluoromethoxy phenylhydrazone) and the final injection was complex […] inhibitors Rotenone+antimycin A 77. The result was automatically generated and analysed by the wave software. The OC-1 cells were pre-treated with cisplatin at three different concentrations (20, 30 and 40 μM) for 24 or 48 hours to induce cytotoxicity prior to the seahorse bioenergetics assays.

[4] = system: Neurodegenerated cells (Parkinson's disease model); experiment: Immunocytochemical localization of PD specific and neuronal markers; type: cell-based, human; settings: fluorescence micrographs
Description: (§1) Perinatal tissue derived human stem cell model for Parkinson's disease (PD) was prepared using proprietary protocols to test the effect of new drug entities. Drug treatment was for 24 hours in all the assays.
For further confirmation and protein localization of neuronal, dopaminergic and PD specific neurodegenerative markers, we performed immunolocalization for synapsin I, Nurr1, TH and α-synuclein respectively.
Fluorescence micrographs of synapsin 1 positive neuronal cells were obtained and the effects of probucol, SPQ and HA-1 on neurodegeneration model with L-Dopa as positive control were compared.
Fluorescence micrographs of Nurr1 positive dopaminergic neuronal cells were obtained and the effects of probucol, SPQ and HA-1 on neurodegeneration model with L-Dopa as positive control were compared.
Fluorescence micrographs of TH positive dopaminergic neuronal cells were obtained and the effects of probucol, SPQ and HA-1 on neurodegeneration model with L-Dopa as positive control were compared.
Fluorescence micrographs of α-synuclein immunolocalization were obtained and the effects of probucol, SPQ and HA-1 on neurodegeneration model with L-Dopa as positive control were compared.

[5] = system: Neurodegenerated cells (Parkinson's disease model); experiment: Adenosine triphosphate (ATP) assay, Parkinson's disease model; type: cell-based, human; settings: PD model; probucol 20 μM, SPQ 10 μM, HA-1 10 μM, L-Dopa 50 μM, 24 hours
Description: as §1
Impaired energy metabolism and reduced ATP levels are common features of PD. Using the stem cell derived PD model, we measured ATP levels in drug treated (probucol, SPQ and HA-1 and L-Dopa) cells and compared with neurodegenerated (ND) cells.
(§2) Neurodegenerated cells were incubated with probucol (20 μM), SPQ (10 μM), HA-1 (10 μM) and L-Dopa (50 μM) for 24 hours (p<0.05; *p<0.05, **p<0.001, ***p<0.0001, ns=non-significant, n=3).

[6] = system: Neurodegenerated cells (Parkinson's disease model); experiment: Greiss (nitric oxide) assay, Parkinson's disease model; type: cell-based, human; settings: PD model
Description: as §1
(§3) Increase in oxidative stress associated with accumulation of α-synuclein plays a central role in disease progression. Nitric oxide enhances the aggregation of α-synuclein and accelerates disease progression. Increased oxidative stress and nitric oxide levels lead to apoptosis and evoke cytotoxic effects on neurons.

[7] = system: Neurodegenerated cells (Parkinson's disease model); experiment: Glutathione peroxidase / GSH activity, Parkinson's disease model; type: cell-based, human; settings: PD model; vs neurodegeneration
Description: as §1
Parkinson's disease-related increase in oxidative stress is associated with mitochondrial dysfunction and subsequent decrease in the levels of brain antioxidant glutathione (GSH).
(Statistical analysis: Results are expressed in mean±SD. One-way ANOVA followed by Dunnett's post hoc test was performed to compare all columns vs neurodegeneration (p<0.05; *p<0.05, **p<0.001, ***p<0.0001, ns=non-significant, n=3).)

[8] = system: Neurodegenerated cells (perinatal tissue derived human stem cell model for Parkinson's disease); experiment: Mitochondrial membrane potential by TMRE assay, Parkinson's disease model; type: cell-based; settings: PD model; probucol 20 μM, SPQ 10 μM, HA-1 10 μM, L-Dopa 50 μM, 24 hours
Description: as §1
Dysfunctional mitochondria and alterations in the mitochondrial membrane potential promote neurodegeneration seen in Parkinson's disease. For assessing the changes in mitochondrial membrane potential, we used TMRE (tetramethylrhodamine ethyl ester) to quantify the changes in live cells by fluorimetry.
as §2

[9] = system: Neurodegenerated cells (Parkinson's disease model); experiment: ROS assay, Parkinson's disease model; type: cell-based, human; settings: PD model
Description: as §1, §3

[10] = system: Neurodegenerated cells (Parkinson's disease model); experiment: Gene expression analysis by qRT-PCR for neuronal, dopaminergic and PD associated markers; type: cell-based, human; settings: 24 hours drug treatment
Description: as §1
Gene expression levels of mature neuronal marker (Synapsin I), dopaminergic markers (Nuclear receptor related 1 (Nurr1), Dopamine transporter (DAT) and Tyrosine hydroxylase (TH)), and PD associated marker (α-synuclein) were analysed to determine the effect of probucol, SPQ, HA-1 and L-Dopa.
(A) Synapsin I, (B) Nurr1, (C) DAT, (D) TH and (E) α-synuclein. (p<0.05; *p<0.05, **p<0.001, ***p<0.0001, n=3).

[11] = system: Neurodegenerated cells (Alzheimer's disease model); experiment: Mitochondrial membrane potential by TMRE assay, Alzheimer's disease model; type: cell-based, human; settings: AD model; probucol 20 μM, SPQ 10 μM, HA-1 10 μM, rivastigmine 2 μM, 24 hours
Description: (§4) Perinatal tissue derived human stem cell model for Alzheimer's disease (AD) was prepared using proprietary protocols to test the effect of new drug entities. Drug treatment was for 24 h in all the assays.
Aβ plaques are sources of toxicity that lead to severe structural and functional abnormalities in mitochondria in Alzheimer's disease. For assessing the changes in the electrophysiology and functional changes in the mitochondrial membrane potential, we used TMRE (tetramethylrhodamine ethyl ester) for quantifying changes in mitochondrial membrane potential in live cells by fluorimetry.

[12] = system: Neurodegenerated cells (perinatal tissue derived human stem cell model for Alzheimer's disease); experiment: Lactate dehydrogenase (LDH) assay, in vitro model of Alzheimer's disease; type: cell-based; settings: probucol 20 μM, SPQ 10 μM, HA-1 10 μM, rivastigmine 2 μM, 24 hours; compared to ND cells
Description: as §4
LDH leakage is a well characterised marker of cellular membrane damage and increase in indicative of lactate deficit, is a hallmark of AD.

[13] = system: Neurodegenerated cells (Alzheimer's disease model); experiment: Glutathione peroxidase / GSH activity, Alzheimer's disease model; type: cell-based, human; settings: AD model; vs neurodegeneration
Description: as §4
Alzheimer's disease-related increase in oxidative stress is associated with decrease in the levels of brain antioxidant glutathione (GSH).
(Statistical analysis: results are expressed in mean±SD. One-way ANOVA followed by Dunnett's post hoc test was performed to compare all columns vs neurodegeneration (p<0.05; *p<0.05, **p<0.001, ***p<0.0001, ns=non-significant, n=3).)

[14] = system: Neurodegenerated cells (Alzheimer's disease model); experiment: Immunocytochemical localization of AD specific and neuronal markers; type: cell-based, human; settings: fluorescence micrographs
Description: as §4
For further confirmation and protein localization of the AD specific neurodegenerative markers and neuronal markers, we performed immunolocalization for BACE1 and synapsin respectively.
Fluorescence micrographs of BACE1 positive neuronal cells were obtained and the effects of probucol, SPQ and HA-1 on neurodegeneration model were compared. […] In the AD model, as expected BACE1 accumulation is clearly pronounced.
In the case of synapsin 1, a disruption in expression of synapsin protein in ND cells was observed.

[15] = system: Neurodegenerated cells (Alzheimer's disease model); experiment: ROS (reactive oxygen species) assay, Alzheimer's disease model; type: cell-based, human; settings: AD model
Description: as §4
(§5) Increase in oxidative stress is associated with accumulation of amyloid beta seen in the AD model. Increased oxidative stress and nitric oxide levels lead to apoptosis and evoke cytotoxic effects on neurons.

[16] = system: Neurodegenerated cells (Alzheimer's disease model); experiment: Gene expression analysis by qRT-PCR for neuronal, cholinergic and AD associated markers; type: cell-based, human; settings: 24 h drug treatment
Description: as §4
For determining the expression of genes involved in AD specific neurodegeneration and neuronal markers, we analysed BACE and chAT (AD and cholinergic markers) and synapsin 1 and neuropilin (neuronal markers).

[17] = system: Neurodegenerated cells (Alzheimer's disease model); experiment: Greiss (nitric oxide) assay, Alzheimer's disease model; type: cell-based, human; settings: AD model
Description: as §4, §5

CC(=O)O[C@@H]1CC[C@@]2(C)C(C1)C[C@@H](OC(C)=O)[C@H]1[C@@H]3CC[C@H]([C@H](C)CCC(=O)Oc4c(C(C)(C)C)cc(SC(C)(C)Sc5cc(C(C)(C)C)c(O)c(C(C)(C)C)c5)cc4C(C)(C)C)[C@@]3(C)CC[C@@H]12 (stereo in doubt) [HA-2, 2,6-di-tert-butyl-4-((2-((3,5-di-tert-butyl-4-hydroxyphenyl)thio)propan-2-yl)thio)phenyl (4R)-4-[(3R,5R,7R,8R,9S,10S,13R,14S,17R)-3,7-diacetoxy-10,13-dimethyl-2,3,4,5,6,7,8,9,11,12,14,15,16,17-tetradecahydro-1H-cyclopenta[a]phenanthren-17-yl]pentanoate]
cell morphology [1]: optimal morphology
protection against programmed cell death (caspase-3 activation) / viable cell population [2]: least amount of cell death
oxygen consumption rate (OCR) ([3]; OC-1 cells after 24 hours exposure to cisplatin (20, 30 and 40 μM)): most potent in reversing the cisplatin-induced cytotoxicity
oxygen consumption rate (OCR) ([3]; OC-1 cells after 48 hours exposure to cisplatin (20, 30 and 40 μM)): significantly reverse the cytotoxic effects of cisplatin

N[C@@H](Cc1ccc(O)c(O)c1)C(=O)O [L-Dopa, Levodopa]
accumulation of α-synuclein (immunolocalization) [4]: least expression
ATP level [5]: Enhanced increase in ATP levels
nitric oxide level [6]: reduction of ROS and NO levels
glutathione (GSH) activity [7]: increase in the GSH activity
mitochondrial membrane potential (TMRE) [8]: maintain the mitochondrial membrane potential
intracellular reactive oxidative stress (ROS) [9]: reduction of ROS and NO levels
TH gene expression (qRT-PCR) [10]: clearly upregulated

CCN(C)C(=O)Oc1cccc([C@H](C)N(C)C)c1 [rivastigmine]
mitochondrial membrane potential (TMRE) [11]: maintain the mitochondrial membrane potential
LDH activity / LDH release [12]: decreased significantly LDH activity
glutathione (GSH) activity [13]: increase in the anti-oxidant GSH activity
accumulation of BACE1 protein (immunolocalization) [14]: least expression
intracellular reactive oxidative stress (ROS) [15]: reduction of ROS and NO levels
BACE1 gene expression (qRT-PCR) [16]: decrease the level of beta secretase 1 (BACE1)
ChAT gene expression (qRT-PCR) [16]: increase the level of choline acetyltransferase (ChAT)
nitric oxide level [17]: reduction of ROS and NO levels
